Measured values as given in patent publication US11945784B2, “IRE1 small molecule inhibitors” (Cornell University, priority 2018, dated 2024).

What was measured:
IRE1α [1] = target: T1, IRE1α (Homo sapiens (Human), UniProt O75460); assay: In vitro luciferase assay (IRE1α Endoribonuclease Nanoluciferase Assay); assay type: cell-based; settings: 293T cells, XBP1 luciferase reporter
Experimental: Compounds disclosed herein were assessed for disruption of IRE-1 signaling using a IRE1α Endoribonuclease Nanoluciferase Assay. Briefly, 2.5×10^6 293T cells were seeded in a 10 cm^2 tissue culture plate. About 24 hours later, the cells were transfected with Effectene. In a 15 mL Tube, the following was added: 2 μg XBP1 luciferase reporter plasmid (PGK-Luc2-P2A-XBP1u-Nanoluciferase-PEST); 300 μl EC buffer; and 16 μl Enhancer, followed by incubation at room temp for 5 minutes. Next, 60 μl Effectene (Qiagen 301427) was added, followed by incubation at room temperature for 10 minutes. 2.6 mL cDMEM media was added. Old media was aspirated from the cells, followed by addition of 7 mL fresh media. Full transfection mixture was added dropwise to cells. Cells were incubated for 6 hours, followed by trypsinization, centrifugation and resuspension in 11 mL media. 100 uL of cells were plated per a well in a 96 well plate. A day later, ER stressors of choice+/−inhibitors were added. To harvest, media was aspirated from cells completely, then 50 uL 1× passive lysis buffer (Promega: E1941) was added per well and put on shaker (300 rpm) for 30 minutes at room temperature. Cells were centrifuged, and 15 uL sample per well was added to a new, opaque white 384 well plate (Corning 3570). 15 uL OneGlo (nanoluciferase kit, Promega N1630) was added. Plates were spun down, placed on shaker (300 rpm) for 10 minutes. Plates were read on luminometer, 1000 ms integration time per well. 15 uL Stop and Glo (nanoluciferase kit) was added. Plates were spun down, placed on shaker (300 rpm) for 10 minutes. Plates were read on luminometer, 1000 ms second integration time per well. Recordings are provided below in Table 4

IRE1α [2] = target: T1, IRE1α; assay: In vitro FRET assay; assay type: biochemical; settings: XBP1 RNA probe
Experimental: In vitro FRET assay was performed to evaluate the ability of select compounds to inhibit IRE1, the results of which are summarized in Table 3. To perform the in vitro FRET assay, 1× complete assay buffer (CAB; […], 50 mM sodium citrate pH 7.15, 1 mM magnesium acetate, 0.02% tween 20) was used to dilute SignalChem IRE1α protein to a final concentration of 2 nM. Selected compounds were serially diluted with DMSO in a non-binding black 384-well plate for a total of 15 ul in each well. 2 ul of the serially diluted compound or DMSO control were then added to new wells containing 98 ul of 1×CAB, for a total volume of 100 ul, 10 ul of which were then transferred to wells of a new plate. 5 ul of the diluted IRE1α was then added to each well. 5 ul of a […] XBP1 RNA probe was then added to each well. Fluorescence was then read over 30 minutes in kinetic mode (485/515 nm).
Two RNA probes were used, XBP1 wildtype (SEQ ID NO: 2) which is able to be spliced by active IRE1α or XBP1 mutant (SEQ ID NO: 3) which is unable to be spliced. Each probe contained a 5′ 6-FAM modification and a 3′ IOWA Black FQ modification.
A second FRET assay was performed to assess ATP-mediated inhibition. In this case, compounds and IRE1α were prepared and combined as discussed above, with the addition of ATP up to 1 mM final concentration. This mixture was incubated at room temperature for 60 minutes and then 5 ul of 400 nM XBP1 wildtype or mutant RNA probe was added. Plates were then read over 30 minutes in kinetic mode (485/515 nm) and rate of fluorescence increase calculated for different compound dilutions to determine IC50 (Table 3).

293T cells = assay: Growth assay (cytotoxicity); assay type: cell-based; settings: Homo sapiens, HEK-293T, 48 h, 2 day incubation, read-out: percentage growth at 5 uM
Experimental: A growth assay is performed to evaluate the compounds disclosed in Table 1 for cytotoxicity. Briefly, 5,000,000 293T cells are resuspended in 18 mL of cDMEM for a final concentration of 277,777 cells/mL. 180 μL (50,000 cells) cDMEM was seeded per well in 96 well flat bottom plate, with some wells left unfilled. In a 96 well plate, […] cDMEM and 1 uL of any one of the compounds disclosed herein. 133.3 uL cDMEM is added to wells 1, 2, 3, 5, 6, 7, 9, 10, and 11 of row A. Wells are serially diluted with 66.7 uL (highest concentration on right, lowest on left) to the total concentrations shown below. 20 uL of each dilution is transferred in duplicate to the cells plated in the 96-well plate. The plate is then placed in a humidified chamber for a 2 day incubation, and then photographed (media is more yellow in wells with potent cell growth). Absorbance is then measured at […] (lower for more acidic media) and […] (higher for more acidic media).

T1 sequence (O75460 19-977): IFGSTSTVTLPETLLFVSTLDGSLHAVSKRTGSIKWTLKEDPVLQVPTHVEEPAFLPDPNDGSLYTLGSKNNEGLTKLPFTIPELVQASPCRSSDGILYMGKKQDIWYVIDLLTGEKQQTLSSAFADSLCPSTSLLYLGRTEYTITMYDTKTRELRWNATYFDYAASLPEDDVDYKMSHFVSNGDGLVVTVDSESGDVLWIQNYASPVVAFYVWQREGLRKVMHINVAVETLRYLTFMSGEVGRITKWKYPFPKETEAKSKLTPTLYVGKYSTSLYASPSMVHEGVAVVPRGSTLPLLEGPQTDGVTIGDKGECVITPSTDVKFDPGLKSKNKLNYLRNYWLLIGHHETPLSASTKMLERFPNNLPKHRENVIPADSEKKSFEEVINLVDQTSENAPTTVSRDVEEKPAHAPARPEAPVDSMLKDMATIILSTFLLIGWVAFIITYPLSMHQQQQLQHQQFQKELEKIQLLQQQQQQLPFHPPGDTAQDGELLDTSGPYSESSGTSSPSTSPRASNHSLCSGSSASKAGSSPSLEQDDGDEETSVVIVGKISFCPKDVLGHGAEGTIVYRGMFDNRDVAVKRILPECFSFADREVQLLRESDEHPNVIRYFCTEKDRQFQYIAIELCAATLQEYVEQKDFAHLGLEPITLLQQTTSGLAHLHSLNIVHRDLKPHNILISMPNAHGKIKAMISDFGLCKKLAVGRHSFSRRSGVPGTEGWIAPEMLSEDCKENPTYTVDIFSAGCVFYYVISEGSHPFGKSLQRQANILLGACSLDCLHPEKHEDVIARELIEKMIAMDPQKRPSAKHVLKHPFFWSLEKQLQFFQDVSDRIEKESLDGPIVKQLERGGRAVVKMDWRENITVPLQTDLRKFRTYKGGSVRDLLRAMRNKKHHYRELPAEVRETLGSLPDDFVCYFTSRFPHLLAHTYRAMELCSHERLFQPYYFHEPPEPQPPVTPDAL

Row | EC50 (IRE1α [1]) | IC50 (IRE1α [2]) | SMILES | viability at 5 µM (293T cells)
1 | 5 to 50 nM | ≤ 1 nM | Cc1nc(NS(=O)(=O)c2ccccc2Cl)c(F)cc1/C=C/c1cnc(NC2CCC(N(C)C)CC2)nc1 (stereo not drawn) [Compound 25, 2-chloro-N-(5-((E)-2-(2-(((1r,4r)-4-(dimethylamino)cyclohexyl)amino)pyrimidin-5-yl)vinyl)-3-fluoro-6-methylpyridin-2-yl)benzenesulfonamide] | > 75%
2 | ≤ 5 nM | ≤ 1 nM | Cc1cc(NS(=O)(=O)c2ccccc2Cl)ccc1/C=C/c1cnc(NC2CCC(N(C)C)CC2)nc1 (stereo not drawn) [Compound 26, 2-chloro-N-(4-((E)-2-(2-(((1r,4r)-4-(dimethylamino)cyclohexyl)amino)pyrimidin-5-yl)vinyl)-3-methylphenyl)benzenesulfonamide] | > 35%
3 | 5 to 50 nM | ≤ 1 nM | Cc1nc(NS(=O)(=O)c2ccc(F)c(F)c2Cl)ccc1/C=C/c1cnc(NC2CCC(N(C)C)CC2)nc1 (stereo not drawn) [Compound 38, 2-chloro-N-(5-((E)-2-(2-(((1r,4r)-4-(dimethylamino)cyclohexyl)amino)pyrimidin-5-yl)vinyl)-6-methylpyridin-2-yl)-3,4-difluorobenzenesulfonamide] | 
4 | 5 to 50 nM | ≤ 1 nM | CCc1nc(NS(=O)(=O)c2cnccc2Cl)ccc1/C=C/c1cnc(NC2CCC(N(C)C)CC2)nc1 (stereo not drawn) [Compound 42, 4-chloro-N-(5-((E)-2-(2-(((1r,4r)-4-(dimethylamino)cyclohexyl)amino)pyrimidin-5-yl)vinyl)-6-ethylpyridin-2-yl)pyridine-3-sulfonamide] | 
5 | 5 to 50 nM | ≤ 1 nM | CNC1CCC(Nc2ncc(C=Cc3ccc(NS(=O)(=O)c4ccccc4Cl)nc3C)cn2)CC1 (stereo not drawn) [Compound 44, 2-chloro-N-(6-methyl-5-(2-(2-(((1r,4r)-4-(methylamino)cyclohexyl)amino)pyrimidin-5-yl)vinyl)pyridin-2-yl)benzenesulfonamide] | 
6 | 5 to 50 nM | ≤ 1 nM | Cc1nc(NS(=O)(=O)c2ccccc2Cl)ccc1/C=C/c1cnc(NC2CCC(N)CC2)nc1 (stereo not drawn) [Compound 46, N-(5-((E)-2-(2-(((1r,4r)-4-aminocyclohexyl)amino)pyrimidin-5-yl)vinyl)-6-methylpyridin-2-yl)-2-chlorobenzenesulfonamide] | 
7 | ≤ 5 nM | ≤ 1 nM | CNC1CCC(Nc2ncc(/C=C/c3ccc(NS(=O)(=O)c4ccccc4Cl)nc3OC)cn2)CC1 (stereo not drawn) [Compound 48, 2-chloro-N-(6-methoxy-5-((E)-2-(2-(((1r,4r)-4-(methylamino)cyclohexyl)amino)pyrimidin-5-yl)vinyl)pyridin-2-yl)benzenesulfonamide] | 
8 | 5 to 50 nM | ≤ 1 nM | COc1nc(NS(=O)(=O)c2ccccc2Cl)c(F)cc1/C=C/c1cnc(NC2CCC(N(C)C)CC2)nc1 (stereo not drawn) [Compound 50, 2-chloro-N-(5-((E)-2-(2-(((1r,4r)-4-(dimethylamino)cyclohexyl)amino)pyrimidin-5-yl)vinyl)-3-fluoro-6-methoxypyridin-2-yl)benzenesulfonamide] | 
9 | ≤ 5 nM | ≤ 1 nM | COc1nc(NS(=O)(=O)c2cccc(Cl)c2Cl)ccc1/C=C/c1cnc(NC2CCC(N(C)C)CC2)nc1 (stereo not drawn) [Compound 51, 2,3-dichloro-N-(5-((E)-2-(2-(((1r,4r)-4-(dimethylamino)cyclohexyl)amino)pyrimidin-5-yl)vinyl)-6-methoxypyridin-2-yl)benzenesulfonamide] | 
10 | ≤ 5 nM | ≤ 1 nM | COc1cc(NS(=O)(=O)c2ccccc2Cl)ccc1/C=C/c1cnc(NC2CCC(N(C)C)CC2)nc1 (stereo not drawn) [Compound 55, 2-chloro-N-(4-((E)-2-(2-(((1r,4r)-4-(dimethylamino)cyclohexyl)amino)pyrimidin-5-yl)vinyl)-3-methoxyphenyl)benzenesulfonamide] | 

The next lines start with the molecule.

Row | SMILES | EC50 (IRE1α [1]) | IC50 (IRE1α [2]) | viability at 5 µM (293T cells)
11 | NC1CCC(Nc2ncc(CCc3ccc(NS(=O)(=O)c4ccccc4Cl)cc3)cn2)CC1 (stereo not drawn) [Compound 1, N-(4-(2-(2-(((1r,4r)-4-aminocyclohexyl)amino)pyrimidin-5-yl)ethyl)phenyl)-2-chlorobenzenesulfonamide] | 50 to 100 nM | 1 to 5 nM | > 75%
12 | NC1CCC(Nc2ncc(/C=C/c3ccc(NS(=O)(=O)c4ccccc4Cl)nn3)cn2)CC1 (stereo not drawn) [Compound 2, N-(6-((E)-2-(2-(((1r,4r)-4-aminocyclohexyl)amino)pyrimidin-5-yl)vinyl)pyridazin-3-yl)-2-chlorobenzenesulfonamide] | 50 to 100 nM |  | > 75%
13 | NC1CCC(Nc2ncc(CCc3ccc(NS(=O)(=O)c4ccccc4Cl)c(F)c3)cn2)CC1 (stereo not drawn) [Compound 8, N-(4-(2-(2-(((1r,4r)-4-aminocyclohexyl)amino)pyrimidin-5-yl)ethyl)-2-fluorophenyl)-2-chlorobenzenesulfonamide] | 100 to 10000 nM | ≤ 1 nM | > 75%
14 | COc1nc(NS(=O)(=O)c2ccccc2Cl)ccc1CCc1cnc(NC2CCC(N)CC2)nc1 (stereo not drawn) [Compound 10, N-(5-(2-(2-(((1r,4r)-4-aminocyclohexyl)amino)pyrimidin-5-yl)ethyl)-6-methoxypyridin-2-yl)-2-chlorobenzenesulfonamide] |  | ≤ 1 nM | > 75%
15 | COc1cc(NS(=O)(=O)c2ccccc2Cl)ccc1/C=C/c1cnc(NC2CCC(N)CC2)nc1 (stereo not drawn) [Compound 14, N-(4-((E)-2-(2-(((1r,4r)-4-aminocyclohexyl)amino)pyrimidin-5-yl)vinyl)-3-methoxyphenyl)-2-chlorobenzenesulfonamide] | ≤ 5 nM | ≤ 1 nM | > 35%
16 | COc1nc(NS(=O)(=O)c2ccccc2Cl)ccc1CCc1cnc(NC2CCC(N(C)C)CC2)nc1 (stereo not drawn) [Compound 19, 2-chloro-N-(5-(2-(2-(((1r,4r)-4-(dimethylamino)cyclohexyl)amino)pyrimidin-5-yl)ethyl)-6-methoxypyridin-2-yl)benzenesulfonamide] | 5 to 50 nM | ≤ 1 nM | > 75%
17 | Cc1nc(NS(=O)(=O)c2ccccc2Cl)c(F)cc1CCc1cnc(NC2CCC(N(C)C)CC2)nc1 (stereo not drawn) [Compound 24, 2-chloro-N-(5-(2-(2-(((1r,4r)-4-(dimethylamino)cyclohexyl)amino)pyrimidin-5-yl)ethyl)-3-fluoro-6-methylpyridin-2-yl)benzenesulfonamide] |  | 1 to 5 nM | > 75%
18 | Cc1cc(NS(=O)(=O)c2ccccc2Cl)cc(F)c1/C=C/c1cnc(NC2CCC(N(C)C)CC2)nc1 (stereo not drawn) [Compound 27, 2-chloro-N-(4-((E)-2-(2-(((1r,4r)-4-(dimethylamino)cyclohexyl)amino)pyrimidin-5-yl)vinyl)-3-fluoro-5-methylphenyl)benzenesulfonamide] | ≤ 5 nM | ≤ 1 nM | > 50%
19 | Cc1nc(NS(=O)(=O)c2ccccc2Cl)ccc1/C=C/c1cnc(NC23CCC(N)(CC2)CC3)nc1 [Compound 49, (E)-N-(5-(2-(2-((4-aminobicyclo[2.2.2]octan-1-yl)amino)pyrimidin-5-yl)vinyl)-6-methylpyridin-2-yl)-2-chlorobenzenesulfonamide] | 100 to 10000 nM | ≤ 1 nM | 
